The source of these data is article PMC6508495, “Members of the abscisic acid co‐receptor PP2C protein family mediate salicylic acid–abscisic acid crosstalk” (Plant Direct, 2017).

The structures appear in SMILES notation.

For assay [1], the target named is T1, ABI2 (Arabidopsis thaliana, UniProt O04719).
T1 construct: ORF from Arabidopsis cDNA library in pET28a, His6-tagged, E. coli Rosetta 2 (DE3), Ni-NTA and gel filtration
T1 sequence (O04719 1-423): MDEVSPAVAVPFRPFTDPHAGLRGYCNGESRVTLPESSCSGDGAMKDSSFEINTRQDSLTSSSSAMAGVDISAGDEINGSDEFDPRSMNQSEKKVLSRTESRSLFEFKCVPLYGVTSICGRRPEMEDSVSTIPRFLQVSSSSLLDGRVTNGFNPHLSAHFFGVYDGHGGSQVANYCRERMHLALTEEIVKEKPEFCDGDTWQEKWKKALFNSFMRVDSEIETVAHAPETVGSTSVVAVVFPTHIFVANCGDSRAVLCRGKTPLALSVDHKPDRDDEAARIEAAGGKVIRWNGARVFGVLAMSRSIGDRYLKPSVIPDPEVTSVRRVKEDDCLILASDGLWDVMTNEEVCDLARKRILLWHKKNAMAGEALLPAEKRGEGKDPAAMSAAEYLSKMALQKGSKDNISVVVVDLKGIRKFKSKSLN
Briefly: SPR, 3AESA immobilised on CM5 chip. Format: binding. Particulars: 3AESA amide-coupled to chip; 1 uM protein; competed by SA.

The target in assay [2] is T2, ABI1 (Arabidopsis thaliana, UniProt P49597).
T2 construct: ORF from Arabidopsis cDNA library in pET28a, His6-tagged, E. coli Rosetta 2 (DE3), Ni-NTA and gel filtration
T2 sequence (P49597 1-434): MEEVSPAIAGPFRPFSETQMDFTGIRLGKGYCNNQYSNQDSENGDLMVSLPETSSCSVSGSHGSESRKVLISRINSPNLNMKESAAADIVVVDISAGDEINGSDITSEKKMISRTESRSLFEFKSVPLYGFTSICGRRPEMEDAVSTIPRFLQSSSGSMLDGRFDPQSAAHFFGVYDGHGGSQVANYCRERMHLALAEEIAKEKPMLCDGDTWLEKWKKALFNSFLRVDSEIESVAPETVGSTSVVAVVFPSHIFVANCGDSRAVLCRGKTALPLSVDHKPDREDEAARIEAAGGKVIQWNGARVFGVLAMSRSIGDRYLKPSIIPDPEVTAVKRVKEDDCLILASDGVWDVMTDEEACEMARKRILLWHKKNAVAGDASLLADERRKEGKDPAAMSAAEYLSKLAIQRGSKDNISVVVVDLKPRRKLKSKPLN
As to the kind of experiment: SPR, 3AESA immobilised on CM5 chip. Format: binding. To be noted: 3AESA amide-coupled to chip; 1 uM protein; competed by SA.

Assay [3] concerns the target T3, PP2C-D4 (Arabidopsis thaliana, UniProt Q94CL8).
T3 construct: gene PP2C6; ORF from Arabidopsis cDNA library in pET42a (NdeI/XhoI), His6-tagged, E. coli Rosetta 2 (DE3), Ni-NTA and gel filtration
T3 sequence (Q94CL8 1-384): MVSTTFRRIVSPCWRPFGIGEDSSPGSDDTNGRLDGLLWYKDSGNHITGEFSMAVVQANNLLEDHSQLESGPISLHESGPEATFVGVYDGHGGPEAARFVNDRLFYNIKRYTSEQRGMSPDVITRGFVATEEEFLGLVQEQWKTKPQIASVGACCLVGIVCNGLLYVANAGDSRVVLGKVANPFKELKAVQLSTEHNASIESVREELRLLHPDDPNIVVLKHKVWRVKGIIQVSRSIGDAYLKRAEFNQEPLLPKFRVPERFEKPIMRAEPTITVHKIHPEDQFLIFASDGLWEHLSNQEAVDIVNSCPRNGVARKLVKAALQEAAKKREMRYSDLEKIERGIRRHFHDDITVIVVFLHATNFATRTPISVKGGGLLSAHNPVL
As to the kind of experiment: SPR, 3AESA immobilised on CM5 chip. Format: binding. Particulars: 3AESA amide-coupled to chip; 1 uM protein; competed by SA.

The target in assay [4] is T2, ABI1. As to the kind of experiment: photoaffinity crosslinking, anti-SA immunoblot. Format: binding. Particulars: 50 uM 4AzSA; 50 ng protein; photo-activated, covalent; competed by SA.
For assay [5], the target named is T1, ABI2. As to the kind of experiment: photoaffinity crosslinking, anti-SA immunoblot. Particulars: 50 uM 4AzSA; 50 ng protein; photo-activated, covalent; competed by SA. Format: binding.
Assay [6] has as its target T4, PYL1 with ABI1 (Arabidopsis thaliana, UniProt Q8VZS8).
T4 construct: His6-SUMO-tagged PYL1 immobilised on CM5 chip; His6-ABI1 as analyte; both from E. coli; with Protein phosphatase 2C 56
T4 sequence (Q8VZS8 2-221): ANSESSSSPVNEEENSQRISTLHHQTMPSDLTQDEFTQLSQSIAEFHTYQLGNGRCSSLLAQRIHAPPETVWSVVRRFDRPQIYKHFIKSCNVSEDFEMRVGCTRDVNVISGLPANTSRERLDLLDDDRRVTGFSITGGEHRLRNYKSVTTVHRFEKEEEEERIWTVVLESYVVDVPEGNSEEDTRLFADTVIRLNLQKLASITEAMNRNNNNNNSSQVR
T4 sequence (P49597 1-434 partner): T2 sequence (P49597 1-434)
Briefly: SPR of ABI1 binding to immobilised PYL1, enhanced by ABA. Particulars: indirect: ABA-enhanced receptor-PP2C interaction; HBS-EP buffer.

For assay [7], the target named is T5, PYR1 with ABI1 (Arabidopsis thaliana, UniProt O49686).
T5 construct: His-SUMO-tagged PYR1 immobilised on CM5 chip; His6-ABI1 as analyte; both from E. coli; with Protein phosphatase 2C 56
T5 sequence (O49686 1-191): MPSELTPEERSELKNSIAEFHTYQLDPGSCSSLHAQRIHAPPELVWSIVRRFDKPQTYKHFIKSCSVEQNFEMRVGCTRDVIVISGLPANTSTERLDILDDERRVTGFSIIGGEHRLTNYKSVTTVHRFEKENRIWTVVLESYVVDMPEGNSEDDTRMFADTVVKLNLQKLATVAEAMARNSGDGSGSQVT
T5 sequence (P49597 1-434 partner): T2 sequence (P49597 1-434)
Briefly: SPR of ABI1 binding to immobilised PYR1, enhanced by ABA. Particulars: indirect: ABA-enhanced receptor-PP2C interaction; HBS-EP buffer.

In assay [8] the target is T6, PYL2 with ABI1 (Arabidopsis thaliana, UniProt O80992).
T6 construct: His-SUMO-tagged PYL2 immobilised on CM5 chip; His6-ABI1 as analyte; both from E. coli; with Protein phosphatase 2C 56
T6 sequence (O80992 1-190): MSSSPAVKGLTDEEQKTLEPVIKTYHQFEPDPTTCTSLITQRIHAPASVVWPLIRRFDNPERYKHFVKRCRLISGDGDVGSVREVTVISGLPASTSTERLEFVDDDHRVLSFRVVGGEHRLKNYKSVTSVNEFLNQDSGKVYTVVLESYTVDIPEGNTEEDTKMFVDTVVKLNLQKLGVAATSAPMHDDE
T6 sequence (P49597 1-434 partner): T2 sequence (P49597 1-434)
As to the kind of experiment: SPR of ABI1 binding to immobilised PYL2, enhanced by ABA. Particulars: indirect: ABA-enhanced receptor-PP2C interaction; HBS-EP buffer.

In assay [9] the target is T3, PP2C-D4. As to the kind of experiment: size-exclusion chromatography with [3H]SA. Format: binding. To be noted: 200 nM [3H]SA; 200 ng/ul protein; labelled compound.
Assay [10] deals with T2, ABI1. As to the kind of experiment: size-exclusion chromatography with [3H]SA. Particulars: 200 nM [3H]SA; 200 ng/ul protein; labelled compound. Format: binding.
The target of assay [11] is T1, ABI2. Briefly: size-exclusion chromatography with [3H]SA. Format: binding. To be noted: 200 nM [3H]SA; 200 ng/ul protein; labelled compound.

With `NCCc1cccc(C(=O)O)c1O` [3AESA], the “SPR, 3AESA immobilised on CM5 chip” value was “recombinant ABI1 and ABI2 bound the 3AESA‐immobilized sensor chip and crosslinked with 4AzSA” in assay [1]; “recombinant ABI1 and ABI2 bound the 3AESA‐immobilized sensor chip and crosslinked with 4AzSA” in assay [2]; “Binding to 3AESA was detected when purified PP2C‐D4 was passed over the sensor chip” in assay [3].
With `[N-]=[N+]=Nc1ccc(C(=O)O)c(O)c1` [4AzSA], the “photoaffinity crosslinking, anti-SA immunoblot” value in [4] is “recombinant ABI1 and ABI2 bound the 3AESA‐immobilized sensor chip and crosslinked with 4AzSA”; in assay [5] it was “recombinant ABI1 and ABI2 bound the 3AESA‐immobilized sensor chip and crosslinked with 4AzSA”.
Take `CC1=CC(=O)CC(C)(C)[C@@]1(O)/C=C/C(C)=C\C(=O)O` [ABA]: the “SPR of ABI1 binding to immobilised PYL1, enhanced by ABA” value in [6] was “this binding was enhanced several fold in the presence of ABA”. The “SPR of ABI1 binding to immobilised PYR1, enhanced by ABA” value in assay [7] is “dose‐dependent binding to the PP2Cs, which was further enhanced in the presence of ABA”. For the same compound, the “SPR of ABI1 binding to immobilised PYL2, enhanced by ABA” value in [8] is “dose‐dependent binding to the PP2Cs, which was further enhanced in the presence of ABA”.
On to `O=C(O)c1ccccc1O` [SA], for which the figures for the “size-exclusion chromatography with [3H]SA” value in assay [9], in [10] and in [11] were “PP2C‐D4's ability to bind SA also was confirmed by size‐exclusion chromatography using [^3H]SA”, “ABI1 exhibited relatively weak binding to [^3H]SA” and “ABI2's binding to [^3H]SA was comparable to that of PP2C‐D4”, respectively.
